Source: the supplement of paper PMC3937590

Legend:
Assay in all cases: -log10 GI50 (growth inhibition 50%) (-log10(M)); higher = more potent growth inhibition
600MPE = system: 600MPE
How it was run: (§1)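 Breast cancer cell lines were exposed to each compound for 72 hours at nine doses in 1:5 serial dilution, in triplicate, with a luminescence read-out against a time-zero plate. A Gompertz curve was fitted to the dose-response data by nonlinear least squares. The value is minus log10 of GI50, the molar concentration giving the set level of growth inhibition. Values equal to the top dose carry a < qualifier.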

MDAMB468 = system: MDAMB468
How it was run: as §1

HCC202 = system: HCC202
How it was run: as §1

T4 = system: T4
How it was run: as §1

MDAMB134VI = system: MDAMB134VI
How it was run: as §1

MDAMB436 = system: MDAMB436
How it was run: as §1

HCC1569 = system: HCC1569
How it was run: as §1

HBL100 = system: HBL100
How it was run: as §1

SUM229PE = system: SUM229PE
How it was run: as §1

MDAMB175VII = system: MDAMB175VII
How it was run: as §1

ZR7530 = system: ZR7530
How it was run: as §1

UACC893 = system: UACC893
How it was run: as §1

184A1 = system: 184A1
How it was run: as §1

S1 = system: S1
How it was run: as §1

HCC3153 = system: HCC3153
How it was run: as §1

SUM102PT = system: SUM102PT
How it was run: as §1

BT20 = system: BT20
How it was run: as §1

MX1 = system: MX1
How it was run: as §1

| SMILES | -log10 GI50 (600MPE) | -log10 GI50 (MDAMB468) | -log10 GI50 (HCC202) | -log10 GI50 (T4) | -log10 GI50 (MDAMB134VI) | -log10 GI50 (MDAMB436) | -log10 GI50 (HCC1569) | -log10 GI50 (HBL100) | -log10 GI50 (SUM229PE) | -log10 GI50 (MDAMB175VII) | -log10 GI50 (ZR7530) | -log10 GI50 (UACC893) | -log10 GI50 (184A1) | -log10 GI50 (S1) | -log10 GI50 (HCC3153) | -log10 GI50 (SUM102PT) | -log10 GI50 (BT20) | -log10 GI50 (MX1) |
| --- | --- | --- | --- | --- | --- | --- | --- | --- | --- | --- | --- | --- | --- | --- | --- | --- | --- | --- |
| CC(=O)Nc1cccc(-n2c(=O)n(C3CC3)c(=O)c3c(Nc4ccc(I)cc4F)n(C)c(=O)c(C)c32)c1 | 8.17 | 4.84 | 6.28 | 9 | 8.33 | 4.81 | < 4.78 | < 4.78 | 8.17 | 7.88 | < 4.78 | 5.77 | 8.67 | 8.31 | < 4.78 | – | – | – |
| CC(C)Oc1ccc(C(=O)N[C@H](CNC(=O)CN(C)C)Cc2ccc(-c3cn4cccc([C@H](C)O)c4n3)cc2)cc1Cl | < 4.48 | 7.61 | 7.76 | 7.2 | 6.52 | 7.92 | 6.59 | 7.33 | 7.42 | 6.76 | 7.68 | 7.7 | 5.1 | 6.37 | 7.22 | 5.18 | – | – |
| CCNCCCNC/C=C\CNCCCNCC | 3.68 | – | 4.75 | 4.76 | 2.97 | 3.43 | 3.71 | 2.94 | 4.33 | 3.21 | < 2.3 | 3.63 | 3.2 | 5.46 | 5.24 | 5.98 | – | – |
| CCn1cc(-c2ccnc3[nH]c(-c4cccc(CN(C)C)c4)cc23)c(-c2ccc(NC(=O)N(C)C)cc2)n1 | 5.1 | 7.89 | 6.03 | 6.63 | 5.59 | 7.19 | 6.17 | 7.15 | 6.33 | 5.07 | – | 5.06 | 6.1 | 6.36 | 4.97 | 5.52 | – | – |
| CNC(=O)c1c(F)cccc1Nc1nc(Nc2cc3c(cc2OC)CCN3C(=O)CN(C)C)nc2[nH]ccc12 | 6.49 | – | 5.05 | – | 4.96 | – | 5.12 | 4.76 | 6.2 | 5.29 | – | – | 6.4 | – | 5.39 | – | 4.86 | 5.29 |
| O=C1NC(=O)/C(=C/c2ccc3nccc(-c4ccncc4)c3c2)S1 | 6.31 | 6.03 | 7.31 | 7.31 | 6.33 | 6.09 | 5.94 | 5.42 | 6.26 | 6.33 | 6.82 | 7.24 | 7.78 | 7.04 | 5.54 | – | – | – |
| C=CCNC1=C2C[C@@H](C)C[C@H](OC)[C@H](O)[C@@H](C)/C=C(\C)[C@H](OC(N)=O)[C@@H](OC)/C=C\C=C(/C)C(=O)NC(=CC1=O)C2=O [17-AAG] | 6.65 | 5.64 | 8.27 | – | 7.42 | 5.96 | 6.84 | 5.97 | 7.56 | 7.39 | – | 7.77 | 7.93 | 6.89 | 6.82 | – | – | – |
| COc1cc2ncnc(Nc3cccc(Cl)c3)c2cc1OC [AG1478] | 4.11 | < 3.78 | 5.75 | – | 4.32 | 4.09 | 5.26 | < 3.78 | < 3.78 | 6.08 | – | 6.39 | – | 7.25 | < 3.78 | – | – | – |
| CC(C)C[C@H](NC(=O)[C@H](Cc1ccccc1)NC(=O)c1cnccn1)B(O)O [Bortezomib] | 6.85 | – | 8.14 | – | 8.08 | – | 8.12 | 7.35 | 7.48 | 8.3 | – | – | 8.18 | – | 7.9 | – | 7.33 | 8.06 |
| CCc1c2c(nc3ccc(OC(=O)N4CCC(N5CCCCC5)CC4)cc13)-c1cc3c(c(=O)n1C2)COC(=O)[C@]3(O)CC [CPT-11] | 4.71 | 4.49 | 4.32 | 5.23 | 4.94 | 5.18 | 4.62 | 5.5 | 5.16 | 4.17 | < 4.13 | 4.22 | 5.44 | < 4.13 | 4.73 | – | – | – |
| O=C(O)C1(C(=O)O)CCC1.[NH2-].[NH2-].[Pt+2] [Carboplatin] | 3.82 | 4.32 | 4.44 | 4.08 | 3.66 | 4.29 | 3.96 | 4.15 | 4.27 | 4.44 | 4.55 | 3.04 | 4.9 | 4.48 | 4.45 | – | – | – |
| CC(=O)O[C@@]12CO[C@@H]1C[C@H](O)[C@@]1(C)C(=O)[C@H](O)C3=C(C)[C@@H](OC(=O)[C@H](O)[C@@H](NC(=O)OC(C)(C)C)c4ccccc4)C[C@@](O)([C@@H](OC(=O)c4ccccc4)[C@H]21)C3(C)C [Docetaxel] | 7.61 | 8.64 | 8.63 | 8.77 | 7.81 | 8.07 | 8.12 | 8.75 | 7.94 | 7.8 | 8.4 | 7.77 | 6.13 | 8.33 | 8.01 | – | – | – |
| COc1cccc2c1C(=O)c1c(O)c3c(c(O)c1C2=O)C[C@@](O)(C(=O)CO)C[C@@H]3O[C@H]1C[C@H](N)[C@@H](O)[C@H](C)O1 [Epirubicin] | – | 6.15 | 6.26 | – | 5.98 | 5.92 | 6.06 | 6.88 | 6.62 | 7.05 | – | 6.11 | 6.68 | 6.42 | 6.19 | – | – | – |
